pIC50: −log10 of the molar value.
Key:
human MR = molecular target: T1, human MR (Homo sapiens, UniProt P08235); experiment: GAL4-MR cell based assay, antagonist format
T1 construct: expressed in transfected cells; host or cells: CV-1 (African Green Monkey Kidney Cells), transiently transfected with pCMX-GAL4-MR
T1 sequence (P08235 671-984): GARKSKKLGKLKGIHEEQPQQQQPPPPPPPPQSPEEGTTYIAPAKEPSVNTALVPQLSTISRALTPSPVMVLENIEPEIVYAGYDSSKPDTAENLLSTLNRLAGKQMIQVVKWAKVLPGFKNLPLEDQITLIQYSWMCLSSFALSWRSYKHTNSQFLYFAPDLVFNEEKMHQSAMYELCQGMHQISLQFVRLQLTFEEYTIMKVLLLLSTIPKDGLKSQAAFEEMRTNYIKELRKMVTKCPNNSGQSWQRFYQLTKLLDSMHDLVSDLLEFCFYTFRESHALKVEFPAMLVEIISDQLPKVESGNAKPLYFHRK
Protocol: Compound activity was determined in a cell-based assay using a GAL4-MR chimera to identify compounds with the ability to modulate MR activity.
The pCMX-GAL4-MR expression plasmid was constructed by cloning nucleotides encoding amino acids 671 to 984 of human MR (see GenBank sequence AAA59571) into the vector pCMX-GAL4 (Perlmann et al., 1993,Genes & Development 7:1411-1422) comprising nucleotides encoding for amino acids 1-147 of the GAL4 DNA binding domain.
The TK-MH 100x4-Luc (GAL4UAS-TK-Luciferase) reporter construct was constructed by insertion of four copies of the Gal4 UAS (Kang et al. 1993, J. Biol. Chem. 268:9629-9635) into the Hind III site of TK-Luc. The parental plasmid, TK-Luc, was prepared by insertion of the Herpes simplex virus thymidine kinase gene promoter (−105 to +51) obtained from the plasmid pBLCAT2 by digestion with HindIII and XhoI (described in Luckow et al., 1987, Nuc. Acid. Res. 15:5490) into the plasmid MMTV-LUC described by Hollenberg and Evans, 1988, Cell 55:899-906) after removal of MMTV-LTR promoter sequence from MMTV-LUC via digestion with HindIII and XhoI. Correct cloning was confirmed by restriction digestion and/or sequencing.
Assays were performed using CV-1 (African Green Monkey Kidney Cells) (ATCC) cells grown in T175 flasks at a density of 3×10^6 cells/flask in DMEM with 5% FBS. Cells were transfected one day after plating at 70-80 percent confluency with a DNA mixture containing (per T175 flask) 9 […] pCMX-GAL4-MR, 9 μg TK-MH100x4-Luc, and 2 μg pCMX β-Gal using the transfection reagent FuGENE6 (Roche Molecular Biochemicals, Indianapolis, Ind.) following recommended protocols and instructions provided by the manufacturer, and incubated with transfection reagents for 5 hours at 37° C.
Transfected cells were trypsinized, resuspended in media, and 45 μL was added to assay plates at a density of approximately 5,000 cells/well using a MultiDrop dispenser (MTX Lab Systems, Inc., VA). The assay plates containing both compounds and screening cells were incubated for approximately 20 hours at 37° C. and 5% CO2 in a tissue culture incubator.
After incubation of the transfected cells with compounds, Lysis buffer (1% Triton X-100, 10% Glycerol, 5 mM DTT, 1 mM EGTA, 25 mM Tricine, pH 7.8) and Luciferin assay buffer (0.73 mM ATP, 22.3 mM Tricine, 0.11 mM EDTA, 33.3 mM DTT, 0.2M MgSO4, 11 mM Luciferin, 6.1 mM Coenzyme A, 0.01 mM HEPES, pH 7.8) were prepared. Media was removed from the plates and lysis buffer and luciferin assay buffer mixed in a 1:1 ratio and then 30 μl of the mixture was added to each well using a Multidrop dispenser. Plates were read on the Northstar (Applied Biosystems, Foster City, Calif.) and data was analyzed using ActivityBase (ID Business Solutions, Ltd., Guildford, Surrey, UK). If required, luciferase values may be normalized for transfection efficiency by measuring β-galactosidase activity based on expression from the pCMX-βGal expression plasmid as described previously (Willy et al., 1995, Gene & Development, 9:1033-1045).
(§1) The following table provides in vitro MR activity data of representative compounds described in the Examples. […] The “+” mark under the selectivity column is given to those compounds having greater than ten-fold antagonist activity against MR compared to at least one nuclear receptor selected from AR, ERα, GR and PR, as determined from the GAL4-AR, GAL4-ERα, GAL4-GR and GAL4-PR assays. The “++” mark under the selectivity column identifies those compounds having greater than ten-fold antagonist activity against MR compared to the four nuclear receptors AR, ERα, GR and PR, as determined from the GAL4-AR, GAL4-ERα, GAL4-GR and GAL4-PR assays.

AR, ERα, GR and PR = experiment: selectivity assays GAL4-AR, GAL4-ERα, GAL4-GR and GAL4-PR, antagonist mode; type: cell-based; settings: antagonist activity against MR compared to AR
Protocol: In certain cases, compounds were also evaluated for activity in selectivity assays with other steroid hormone receptor members, including AR, ER, GR and PR, as well as GAL4 alone. Steroid receptors used for selectivity assays were essentially generated as described above for pCMX-GAL4-MR, and comprised the LBD and a portion of the hinge region of the nuclear receptor of interest cloned in frame into the vector pCMX-GAL4 (Perlmann et al., 1993,Genes & Development 7:1411-1422) as described above.
Assays run in antagonist mode included agonists as follows: AR; 25 nM dihydrotestosterone (DHT), ER; 4.5 nM estradiol, GR; 20 nM dexamethasone, and PR; 2 nM medroxyprogesterone (MPA), respectively. Assays run in agonist mode contained no supplemental compounds.
as §1

Row | Compound | pIC50 (human MR) | Selectivity (AR, ERα, GR and PR)
1 | CCNS(=O)(=O)c1ccc(NC(=O)c2cc(C)n(-c3ccccc3C(F)(F)F)c2C)cc1 [2,5-dimethyl-1-[2-(trifluoromethyl)phenyl]-1H-pyrrole-3-carboxylic acid (4-ethylsulfamoyl-phenyl)-amide] | 5.30 to 6.00 | + (greater than ten-fold antagonist activity against MR compared to at least one nuclear receptor selected from AR, ERα, GR and PR)
2 | CCc1nc(C(=O)Nc2ccc(S(C)(=O)=O)cc2)c(C)n1-c1ccccc1C(F)(F)F [2-ethyl-5-methyl-1-(2-trifluoromethyl-phenyl)-1H-imidazole-4-carboxylic acid (4-methanesulfonyl-phenyl)-amide] | > 6.30 | ++ (greater than ten-fold antagonist activity against MR compared to the four nuclear receptors AR, ERα, GR and PR)
3 | Cc1[nH]c(C(=O)Nc2ccc(S(C)(=O)=O)cc2)c(C)c1-c1ccccc1C(F)(F)F [3,5-dimethyl-4-(2-trifluoromethyl-phenyl)-1H-pyrrole-2-carboxylic acid (4-methanesulfonyl-phenyl)-amide] | > 6.30 | ++ (greater than ten-fold antagonist activity against MR compared to the four nuclear receptors AR, ERα, GR and PR)
4 | Cc1c(C(=O)Nc2ccc(S(C)(=O)=O)cc2)cc(-c2ccc(F)cc2)n1-c1ccccc1C(F)(F)F [5-(4-fluorophenyl)-2-methyl-1-(2-trifluoromethylphenyl)-1H-pyrrole-3-carboxylic acid (4-methanesulfonyl-phenyl) amide] | > 6.30 | ++ (greater than ten-fold antagonist activity against MR compared to the four nuclear receptors AR, ERα, GR and PR)

Reference: patent US20110144128A1, “Heterocyclic Carboxamide Compounds as Steroid Nuclear Receptors Ligands” (EXELIXIS, INC., priority 2005, published 2011)
